Results taken from patent US20220323376A1, “METHODS AND COMPOSITIONS FOR SENSITIZING CANCER CELLS TO DRUG-INDUCED APOPTOSIS” (New York University, priority 2019, published 2022).

Legend:
AML cells = test: Cell death by Annexin V flow cytometry; format: cell-based, human
Protocol: Cell Cycle and Apoptosis. To assess cell cycle, we performed the 5-ethynyl-2′-deoxyuridine (EdU) incorporation assay using the Click-iT Plus EdU Alexa Fluor 647 kit as described in manufacturer's protocol (Life Technologies). Apoptosis analysis was determined using APC Annexin V (BD Bioscience) and 4′,6-Diamidino-2-Phenylindole, Dihydrochloride (DAPI) for DNA content. Both EdU and Annexin V stained cells were analyzed by flow cytometry and FlowJo software.

[1] = test system: mouse AML cell line RN2 (MLL-AF9; Kras)
Protocol: ZIP model was used to calculate the delta-score of synergisms of the combination treatments. […] ZIP model was used to calculate the delta-score of synergisms of the combination treatments. […] ZIP model was used to calculate the delta-score of synergisms of the combination treatments.
Drug Treatment and IC50 Measurements. Cells were plated in 96-well plates and exposed to Venetoclax at concentrations ranging from 0.4 nM to 300 nM (for MOLM-13 and MV4-11), 150 nM to 10 μM (for Venetoclax-resistant cell lines and THP-1) with a minimum of three technical replicates per concentration per cell line. Cell viability was measured with the CellTiter-Glo reagent (Promega) according to manufacturer's instructions. Absolute viability values were converted to percentage viability versus DMSO control treatment, and then non-linear fit of log(inhibitor) versus response (three parameters) was performed in GraphPad Prism v7.0 to obtain the IC50 values. For Venetoclax and Azacitidine combined treatment, two drugs were mixed at the fixed ratio (Ven:Aza=1:4) before diluting to certain concentrations.

[2] = test system: human AML cell lines (MOLM-13, MV4-11, THP-1, KASUMI-1); test: Venetoclax/drug IC50 by CellTiter-Glo in sgRNA-transduced AML cell lines; format: cell-based; conditions: for Synergistic effect of CLPB ablation with the drug: MOLM-13 and MV4-11 with sgCLPB or sgRosa, 48 hrs
Source text: (§1) Drug Treatment and IC50 Measurements.

[3] = test system: AML cells (THP-1, MOLM-13); test: Western blotting of AML cell lysates after drug treatment; format: cell-based, human; conditions: for CLPB protein levels in cells surviving drug treatment: MOLM-13, Venetoclax (IC50) 10 days, Idarubicin 10 nM 2 days
Protocol: Biochemistry. Protein lysis was performed with RIPA buffer (Thermo Fisher Scientific) in presence of proteases inhibitor cocktail (PIC, Sigma) for 30 min at 4° C. After centrifugation at maximal speed for 20 min, supernatants were collected and protein concentration was determined using Bradford reagent (Bio-Rad).
Protein lysates (25-30 μg) were loaded onto 4%-12% Bis-Tris or 3%-8% Tris-acetate polyacrylamide gels (Thermo Fisher Scientific), transferred onto PVDF membranes (Millipore) and probed using the following antibodies: anti-CLPB polyclonal (1:2000, Proteintech, Cat #15743-1-AP), anti-TFAM (1:500, Santa Cruz, Cat #sc-376672), anti-OPA1 monoclonal (1:1000, BD Biosciences, Cat #612606), anti-SDHA monoclonal (1:2500, Abcam, Cat #ab14715), anti-HAX1 polyclonal (1:1000, Proteintech, Cat #11266-1-AP), anti-cytochrome c monoclonal (1:4000, Thermo Fisher Scientific, Cat #BDB556433), anti-caspase-3 monoclonal (1:1000, Proteintech, Cat #66470-2-Ig), anti-cleaved caspase-3 polyclonal (1:1000, Cell Signaling, Cat #9661S), anti-GRP75 monoclonal (1:1000, Santa Cruz, Cat #sc-133137), anti-TOM20 monoclonal (1:500, Santa Cruz, Cat #sc-17764), anti-p53 monoclonal (1:1000, Active Motif North America, Cat #39553), anti-BCL-2 polyclonal (1:200, R&D Systems, Cat #AF810-SP), anti-MCL1 polyclonal (1:1000, Proteintech, Cat #16225-1-AP), anti-BCL-XL monoclonal (1:500, R&D Systems, Cat #MAB894SP), anti-NOXA monoclonal (1:500, Abcam, Cat #ab13654), anti-GAPDH polyclonal (1:10000, Proteintech, Cat #10494-1-AP), anti-LAMIN A polyclonal (1:1000, Santa Cruz, Cat #sc-6214) and anti-ACTIN (1:10000, Millipore, Cat #MAB1501) antibodies. Isotype matched secondary antibodies were conjugated to horseradish peroxidase (GE Healthcare) and chemiluminescence was detected with ECL (Life Technologies) using films. Band densitometric analysis was performed using ImageJ (National Institutes of Health).

[4] = test system: human AML cell lines (MOLM-13, KASUMI-1); test: IC50 curves of AMG176 in combination with Mdivi-1; format: cell-based; conditions: AML cells
[5] = test system: Venetoclax-resistant (VR) MOLM-13 and MV4-11 cells; test: Venetoclax IC50 in parental versus Venetoclax-resistant (VR) AML cell lines; format: cell-based, human
Protocol: For the generation of the Venetoclax-resistant cell lines, MOLM-13 and MV4-11 were cultured in media containing increasing doses of Venetoclax (from 5 nM to 1000 nM) for more than 8 weeks to achieve complete resistance to the drug.
as §1

[6] = test system: AML cells (THP-1 and MOLM-13); test: Electron microscopy-based morphometric analysis of mitochondria; format: cell-based, human; conditions: THP-1 4 μM, MOLM-13 17 nM, 16 hrs
Protocol: Transmission Electron Microscopy. Cultured cells were fixed in 0.1M sodium cacodylate buffer (pH 7.4) containing 2.5% glutaraldehyde and 2% paraformaldehyde for 2 hrs and post-fixed with 1% osmium tetroxide and 1% potassium ferrocyanide for one hour at 4° C. Then block was stained in 0.25% aqueous uranyl acetate, processed in a standard manner and embedded in EMbed 812 (Electron Microscopy Sciences, Hatfield, Pa.). Ultrathin sections (60 nm) were cut, mounted on copper grids and stained with uranyl acetate and lead citrate. Stained grids were examined under Philips CM-12 electron microscope and photographed with a Gatan (4k×2.7k) digital camera. For morphometric analysis, maximal cristae width was measured using Image J (NIH) as shown in FIG. 4A in at least 50 randomly selected mitochondria from a minimum of 15 cells/experiment.

[7] = test system: AML cells (THP-1, MOLM-13, MV4-11); test: Mitochondrial membrane potential by TMRM staining; format: cell-based, human; conditions: 16 hrs
Protocol: Mitochondrial Membrane Potential. Mitochondrial membrane potential was monitored cytofluorimetrically using tetramethylrhodamine methyl ester (TMRM). Cells were loaded with 10 nM TMRM in presence of 2 μM Cyclosporin H in Hank's Balanced Salt Solution (HBSS) supplemented with 10 mM HEPES, 30 min at 37° C. When indicated, the experiments were performed in cells pre-treated with Venetoclax for 16 hours at the indicated concentrations.

[8] = test system: MOLM-13-Par or MOLM-13-VR xenografts; test: MOLM-13 parental and VR xenografts in NSG mice, Venetoclax by oral gavage; format: in vivo, NOD SCID gamma (NSG) mice
Protocol: Animal experiments. For in vivo experiments, Cas9 and luciferase-expressing parental and Venetoclax-resistant MOLM-13 cells were transduced with sgRosa or sgCLPB #1 constructs. At day 2 post-transduction, sgRNA positive cells (GFP) were sorted by FACS. 0.5 million sgRNA-expressing leukemia cells were intravenously injected into recipient NSG mice. For experiments that required drug administration, recipient mice were treated with vehicle or Venetoclax (100 mg/kg, Selleckchem) daily by oral gavage from day 6 to day 20. Venetoclax was prepared in 10% ethanol, 30% polyethyleneglycol-400 (Sigma), and 60% phosal 50 propylene glycol (Lipoid). Whole-body bioluminescent imaging was performed at indicated time points by intraperitoneally injection of Luciferin (Goldbio) at a 50 mg/kg concentration and imaging was performed after 5 mins using an IVIS imager. Bioluminescent signals (radiance) were quantified using Living Image software with standard regions of interests (ROI) rectangles. Peripheral blood of recipient NSG mice was collected at indicated time points after transplantation, and sgRNA positive cells (GFP+) were analyzed by flow cytometry. All animal experiments were performed in accordance with protocols approved by the New York University Institutional Animal Care and Use Committee (IACUC, ID: IA16-00008_TR1).
Animals. […]

AML patients = conditions: cited from earlier work

For `CO[C@H]1/C=C/C[C@H](C)[C@@H](C)S(=O)(=O)NC(=O)c2ccc3c(c2)N(C[C@@H]2CC[C@H]21)C[C@@]1(CCCc2cc(Cl)ccc21)CO3` [AMG176, (3′R,4S,6′R,7′S,8′E,11′S,12′R)-7-chloro-7′-methoxy-11′,12′-dimethyl-13′,13′-dioxospiro[2,3-dihydro-1H-naphthalene-4,22′-20-oxa-13λ6-thia-1,14-diazatetracyclo[14.7.2.03,6.019,24]pentacosa-8,16(25),17,19(24)-tetraene]-15′-one], the “Apoptosis induced by AMG176 upon CLPB depletion” value (AML cells; MOLM-13 and KASUMI-1 with sgCLPB, 22 hrs) was “enhances the apoptosis”.

For `CCN(CC)CCCC(C)Nc1ccnc2cc(Cl)ccc12` (stereo not drawn) [Chloroquine, N′-(7-chloroquinolin-4-yl)-N,N-diethylpentane-1,4-diamine], the “IC50 of chloroquine upon addition of Venetoclax plus Azacitidine” value [1] was “vice versa”.

In the case of `Nc1ccn([C@@H]2O[C@H](CO)[C@@H](O)[C@@H]2O)c(=O)n1` [Cytarabine, 4-amino-1-[(2R,3S,4S,5R)-3,4-dihydroxy-5-(hydroxymethyl)oxolan-2-yl]pyrimidin-2-one], the “Synergistic effect of CLPB ablation with the drug” value (from here on “Synergistic effect”) [2] is reported as “no synergistic effect”.

For `CC(=O)[C@]1(O)Cc2c(O)c3c(c(O)c2[C@@H](O[C@H]2C[C@H](N)[C@H](O)[C@H](C)O2)C1)C(=O)c1ccccc1C3=O` [Idarubicin, (7S,9S)-9-acetyl-7-{[(2R,4S,5S,6S)-4-amino-5-hydroxy-6-methyloxan-2-yl]oxy}-6,9,11-trihydroxy-5,7,8,9,10,12-hexahydrotetracene-5,12-dione], the “Synergistic effect” value [2] was “no synergistic effect” and the “CLPB protein levels in cells surviving drug treatment” value [3] was “did not lead to increase of CLPB protein levels”.

With `Cc1sc2c(c1C)C(c1ccc(Cl)cc1)=N[C@@H](CC(=O)OC(C)(C)C)c1nnc(C)n1-2` [JQ-1] the “Synergistic effect” value [2] was “no synergistic effect”.

With `COc1cc(-n2c(=S)[nH]c3ccccc3c2=O)c(Cl)cc1Cl` [Mdivi-1, 3-(2,4-dichloro-5-methoxyphenyl)-2-sulfanylidene-1H-quinazolin-4-one] the “Combination effect with AMG176” value [4] was “synergistic effects with AMG176”.

In the case of `CC1(C)CCC(CN2CCN(c3ccc(C(=O)NS(=O)(=O)c4ccc(NCC5CCOCC5)c([N+](=O)[O-])c4)c(Oc4cnc5[nH]ccc5c4)c3)CC2)=C(c2ccc(Cl)cc2)C1` [Venetoclax, 4-[4-[[2-(4-chlorophenyl)-4,4-dimethylcyclohexen-1-yl]methyl]piperazin-1-yl]-N-[3-nitro-4-(oxan-4-ylmethylamino)phenyl]sulfonyl-2-(1H-pyrrolo[2,3-b]pyridin-5-yloxy)benzamide], the “Venetoclax IC50 upon CLPB depletion” value ([2]; CLPB sgRNAs versus sgRosa, all the cell lines tested, 48 hours) is reported as “significantly reduced the IC50”, the “Venetoclax half maximal inhibitory concentration (IC50) upon deletion of BAX and PMAIP1” value ([2]; KASUMI-1 and MOLM-13 cells, 48 hours, Cell-TiterGlo) is reported as “significant increase” and the “Sensitivity of p53-deficient MOLM-13 to Venetoclax upon CLPB depletion” value ([2]; p53-KO clones B10 and B11, sgCLPB #1, 48 hours) is reported as “fully re-sensitize p53-deficient MOLM-13 to Venetoclax treatment”. The “Venetoclax IC50 with TP53 sgRNAs” value ([2]; p53 wild-type MOLM-13 and p53-mutant KASUMI-1, 48 hours) was “increased the Venetoclax IC50 in p53 wild-type MOLM-13 but not p53-mutant KASUMI-1”, the “Increase of Venetoclax concentration required for the 50% cell death in VR cell lines in respect to the original clones (Par.)” value ([5]; MOLM-13 and MV4-11 VR versus parental) was “more than 100 fold” and the “Sensitivity of VR cells to Venetoclax upon ablation of CLPB” value ([5]; VR MOLM-13 and MV4-11 with CLPB sgRNAs) was “significantly re-sensitized VR cells”. The “Mitochondrial ultrastructure after treatment” value [6] was “abnormal ultrastructure after Venetoclax treatment, characterized by a lower number of cristae and increase of the cristae lumen width”, the “Mitochondrial depolarization in CLPB-knockout cells (TMRM)” value ([7]; AML cells lacking CLPB versus control) was “more prone to Venetoclax-induced mitochondrial depolarization” and the “Mitochondrial membrane potential (TMRM)” value ([7]; THP-1 4 μM, MOLM-13 35 nM) was “depolarization of mitochondria”. For the same compound, the “Caspase-3 activation in AML cells lacking CLPB relative to wild-type” value ([3]; MOLM-13 35 nM, THP-1 4 μM, 16 hrs) was “prevalent caspase-3 activation”, the “CLPB protein levels in cells surviving drug treatment” value [3] was “significant increase in the CLPB protein” and the Caspase-3 cleavage ([3]; THP-1, 4 μM, 16 hrs) was “caspase activation”. For the same compound, the “OPA1 long and short forms (western blot)” value ([3]; THP-1, 4 μM, 16 hrs) was “decrease in the long (L-OPA1) forms and accumulation of short (S-OPA1) forms of OPA1”, the “Cell death by Annexin-V staining” value (AML cells; AML cells, 16 hrs) was “cell death” and the “Cell death induced by Venetoclax upon depletion of OPA1” value (AML cells; THP-1, 4 μM, 16 hrs) was “enhances cell death”. For the same compound, the “Annexin-V cell death in cells transduced with sgRNAs targeting CLPB versus negative controls” value (AML cells; puromycin-selected AML cells, 16 hrs) was “hypersensitivity of these cells to Venetoclax”, the “Synergy of CLPB deletion with Venetoclax in vivo (bioluminescence, circulating GFP+ leukemic cells)” value ([8]; 100 mg/kg daily oral gavage day 6 to day 20) was “synergizes efficiently with Venetoclax in both Venetoclax-sensitive and resistant xenografts” and the “CLPB and OPA1 protein levels in wild-type tumors at late stages versus vehicle-treated mice” value ([8]; sorted GFP+ sgRosa leukemia cells from bone marrow) was “significantly elevated CLPB and OPA1 protein levels”. The “Patients that do not respond upfront” value (AML patients; Venetoclax with hypomethylating agents or low dose cytarabine) was “approximately 30%” and the “Response rates, single-agent Venetoclax in AML” value (AML patients; monotherapy) was “modest and rather short-lived”.
